# Laboratory results taken from US20240041042A1, “1-(PYRIDYL)-5-AZINYLPYRAZOLE DERIVATIVES, AND THEIR USE FOR CONTROL OF UNDESIRED PLANT GROWTH” (Bayer Aktiengesellschaft, priority 2020, published 2024).
# Read-outs that look alike come from different tables or passages of the source.
# Key:
# Assay type in all cases: in vivo
# [1] = test system: Polygonum convolvulus (POLCO); experiment: Pre-emergence herbicidal action against POLCO
# Method in brief: (§1)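 Pre-emergence soil-surface spray of compound, formulated as wettable powder or emulsion concentrate, in aqueous suspension or emulsion with 0.5% additive (600 l/ha; rate 320 g/ha or less). Activity rated visually after roughly 3 weeks in the greenhouse as a percentage of untreated controls, 0% meaning no difference.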
# [2] = test system: Zea mays (ZEAMX); settings: pre-emergence, 80 g/ha, crop plant compatibility, in comparison to untreated controls
# Method in brief: (§2)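 Scoring: visual, % of untreated control, about 3 weeks after a pre-emergence application to the soil surface. Application used WP or EC formulations diluted in water with 0.5% additive at 600 l/ha; dosage levels are marked by suffixes a, b and c.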
# [3] = test system: Oryza sativa (ORYSA); settings: pre-emergence, 80 g/ha, crop plant compatibility, in comparison to untreated controls
# Method in brief: as §2
# [4] = test system: Alopecurus myosuroides (ALOMY); experiment: Post-emergence herbicidal action against ALOMY; settings: visual rating about 3 weeks after treatment vs untreated controls (100% = plants have died, 0% = like control plants)
# Method in brief: (§3)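 Values are percent visual activity (0% like control, 100% plants dead) after about 3 weeks in the greenhouse. Treatment: post-emergence spray at one-leaf stage, 600 l/ha spray volume, 0.5% additive, doses 320 g/ha or lower.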
# [5] = test system: Amaranthus retroflexus (AMARE); experiment: Pre-emergence herbicidal action against AMARE; settings: visual scoring after about 3 weeks vs untreated controls
# Method in brief: as §1
# [6] = test system: Alopecurus myosuroides (ALOMY); experiment: Pre-emergence herbicidal action against ALOMY; settings: 320 g/ha; scored visually after about 3 weeks; 100% = plants have died
# Method in brief: as §1
# [7] = test system: Lolium rigidum (LOLRI); experiment: Post-emergence herbicidal action against LOLRI; settings: dosage 320 g/ha
# Method in brief: as §3
# [8] = test system: Viola tricolor (VIOTR); experiment: Post-emergence herbicidal action against VIOTR
# Method in brief: as §3
# [9] = test system: Echinochloa crus-galli (ECHCG); experiment: Post-emergence herbicidal action against ECHCG
# Method in brief: as §3
# [10] = test system: Viola tricolor (VIOTR); experiment: Pre-emergence herbicidal action against VIOTR
# Method in brief: as §1
# [11] = test system: Pharbitis purpurea (PHBPU); experiment: Post-emergence herbicidal action against PHBPU
# Method in brief: as §3
# [12] = test system: Lolium rigidum (LOLRI); experiment: Pre-emergence herbicidal action against LOLRI; settings: dosage 320 g/ha
# Method in brief: as §1
# [13] = test system: Zea mays (ZEAMX); settings: for Post-emergence action against ZEAMX in %: crop plant compatibility, 80 g/ha, effect vs untreated controls
# Method in brief: (§4)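 One-leaf-stage crops (2–3 wk post-sowing, sandy loam, greenhouse) sprayed on green parts; 0.5% additive, 600 l/ha water. Rated by eye ~3 wk later, % vs untreated; suffixes a/b/c mark different dosages.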
# [14] = test system: Oryza sativa (ORYSA); settings: crop plant compatibility
# Method in brief: as §4
# [15] = test system: Setaria viridis (SETVI); experiment: Pre-emergence herbicidal action against SETVI; settings: dosage 320 g/ha
# Method in brief: as §1
# [16] = test system: Setaria viridis (SETVI); experiment: Post-emergence herbicidal action against SETVI
# Method in brief: as §3
# [17] = test system: Matricaria inodora (MATIN); experiment: Pre-emergence herbicidal action against MATIN; settings: dosage 320 g/ha
# Method in brief: as §1
# [18] = test system: Avena fatua (AVEFA); experiment: Post-emergence herbicidal action against AVEFA; settings: visual rating about 3 weeks after treatment
# Method in brief: as §3
# [19] = test system: Polygonum convolvulus (POLCO); experiment: Post-emergence herbicidal action against POLCO; settings: dosage 320 g/ha
# Method in brief: as §3
# [20] = test system: Verconica persica (VERPE); experiment: Post-emergence herbicidal action against VERPE
# Method in brief: as §3
# [21] = test system: Matricaria inodora (MATIN); experiment: Post-emergence herbicidal action against MATIN; settings: dosage 320 g/ha
# Method in brief: as §3
# [22] = test system: Abutilon theophrasti (ABUTH); experiment: Post-emergence herbicidal action against ABUTH; settings: visual rating about 3 weeks after treatment vs untreated controls (100% = plants have died, 0% = like control plants)
# Method in brief: as §3
# [23] = test system: Verconica persica (VERPE); experiment: Pre-emergence herbicidal action against VERPE; settings: dosage 320 g/ha
# Method in brief: as §1
# [24] = test system: Avena fatua (AVEFA); experiment: Pre-emergence herbicidal action against AVEFA; settings: 320 g/ha, visual scoring after about 3 weeks vs untreated controls
# Method in brief: as §1
# [25] = test system: Amaranthus retroflexus (AMARE); experiment: Post-emergence herbicidal action against AMARE
# Method in brief: as §3
# [26] = test system: Echinochloa crus-galli (ECHCG); experiment: Pre-emergence herbicidal action against ECHCG; settings: dosage 320 g/ha
# Method in brief: as §1
# [27] = test system: Pharbitis purpurea (PHBPU); experiment: Pre-emergence herbicidal action against PHBPU; settings: dosage 320 g/ha
# Method in brief: as §1
# [28] = 80 g/ha, effect in comparison to untreated controls
smiles,measurement,setting,value
COCCOC(=O)COc1nn(-c2ncccc2C(F)(F)F)c(-c2ccc(F)nc2)c1Cl [Example I-362],Pre-emergence action against POLCO in %,[1]; dosage 320 g/ha,80%
same,Pre-emergence action against ZEAMX in %,[2],0%
same,Pre-emergence action against ORYSA in %,[3],20%
same,Post-emergence action against ALOMY in %,[4]; 320 g/ha,90%
same,Pre-emergence action against AMARE in %,[5]; 320 g/ha,90%
same,Pre-emergence action against ALOMY,[6],100%
same,Post-emergence action against LOLRI in %,[7],80%
same,Post-emergence action against VIOTR in %,[8]; 80 g/ha,80%
same,Post-emergence action against VIOTR in %,[8]; 320 g/ha,80%
same,Post-emergence action against ECHCG in %,[9]; dosage 320 g/ha,80%
same,Pre-emergence action against VIOTR in %,"[10]; 320 g/ha, Viola tricolor",100%
same,Post-emergence action against PHBPU in %,[11]; dosage 320 g/ha,80%
same,Pre-emergence action against LOLRI in %,[12],100%
same,Post-emergence action against ZEAMX in %,[13],0%
same,Post-emergence action against ORYSA in %,[14]; [28],10%
same,Pre-emergence action against SETVI in %,[15],80%
same,Post-emergence action against SETVI in %,[16]; dosage 320 g/ha,80%
COC(=O)COc1nn(-c2ncccc2Cl)c(-c2ccc(F)nc2)c1Br [Example I-28],Pre-emergence action against POLCO in %,[1]; dosage 80 g/ha,80%
same,Pre-emergence action against POLCO in %,[1]; dosage 320 g/ha,90%
same,Pre-emergence action against ZEAMX in %,[2],10%
same,Pre-emergence action against ORYSA in %,[3],0%
same,Pre-emergence action against MATIN in %,[17],90%
same,Post-emergence action against ALOMY in %,[4]; 80 g/ha,100%
same,Post-emergence action against ALOMY in %,[4]; 320 g/ha,100%
same,Post-emergence action against AVEFA in %,[18]; 80 g/ha,100%
same,Post-emergence action against AVEFA in %,[18]; 320 g/ha,100%
same,Pre-emergence action against AMARE in %,[5]; 80 g/ha,90%
same,Pre-emergence action against AMARE in %,[5]; 320 g/ha,100%
same,Pre-emergence action against ALOMY,[6],100%
same,Post-emergence action against LOLRI in %,[7],90%
same,Post-emergence action against VIOTR in %,[8]; 80 g/ha,80%
same,Post-emergence action against VIOTR in %,[8]; 320 g/ha,80%
same,Post-emergence action against ECHCG in %,[9]; dosage 80 g/ha,80%
same,Post-emergence action against ECHCG in %,[9]; dosage 320 g/ha,90%
same,Post-emergence action against POLCO in %,[19],80%
same,Pre-emergence action against VIOTR in %,"[10]; 320 g/ha, Viola tricolor",100%
same,Pre-emergence action against VIOTR in %,[10]; dosage 80 g/ha,100%
same,Post-emergence action against PHBPU in %,[11]; dosage 80 g/ha,80%
same,Post-emergence action against PHBPU in %,[11]; dosage 320 g/ha,80%
same,Pre-emergence action against LOLRI in %,[12],100%
same,Post-emergence action against VERPE in %,"[20]; 320 g/ha, VERPE",80%
same,Post-emergence action against ZEAMX in %,[13],0%
same,Post-emergence action against ORYSA in %,[14]; [28],0%
same,Post-emergence action against MATIN in %,[21],80%
same,Post-emergence action against ABUTH in %,[22]; 80 g/ha,80%
same,Post-emergence action against ABUTH in %,[22]; 320 g/ha,90%
same,Pre-emergence action against VERPE in %,[23],100%
same,Pre-emergence action against SETVI in %,[15],100%
same,Pre-emergence action against AVEFA in %,[24],100%
same,Post-emergence action against AMARE in %,"[25]; 80 g/ha, visual rating about 3 weeks after treatment vs untreated controls (100% = plants have died, 0% = like control plants)",90%
same,Post-emergence action against AMARE in %,"[25]; 320 g/ha, visual rating about 3 weeks after treatment",90%
same,Pre-emergence action against ECHCG in %,[26],100%
same,Post-emergence action against SETVI in %,[16]; dosage 80 g/ha,80%
same,Post-emergence action against SETVI in %,[16]; dosage 320 g/ha,90%
CCOC(=O)COc1nn(-c2ncccc2Cl)c(-c2ccc(F)nc2)c1Br [Example I-23],Pre-emergence action against POLCO in %,[1]; dosage 320 g/ha,90%
same,Pre-emergence action against ZEAMX in %,[2],10%
same,Pre-emergence action against ORYSA in %,[3],10%
same,Pre-emergence action against MATIN in %,[17],90%
same,Post-emergence action against ALOMY in %,[4]; 80 g/ha,90%
same,Post-emergence action against AVEFA in %,[18]; 80 g/ha,90%
same,Pre-emergence action against AMARE in %,[5]; 80 g/ha,90%
same,Pre-emergence action against AMARE in %,[5]; 320 g/ha,100%
same,Pre-emergence action against ALOMY,[6],100%
same,Post-emergence action against ECHCG in %,[9]; dosage 80 g/ha,80%
same,Pre-emergence action against VIOTR in %,"[10]; 320 g/ha, Viola tricolor",100%
same,Pre-emergence action against VIOTR in %,[10]; dosage 80 g/ha,90%
same,Pre-emergence action against LOLRI in %,[12],100%
same,Pre-emergence action against PHBPU in %,[27],90%
same,Post-emergence action against VERPE in %,[20]; dosage 80 g/ha,80%
same,Post-emergence action against ZEAMX in % (crop plant compatibility),"[13]; 20 g/ha, ZEAMX, effect in comparison to untreated controls",0%
same,Post-emergence action against ZEAMX in %,[13],10%
same,Post-emergence action against ORYSA in %,"[14]; 20 g/ha, effect vs untreated controls",0%
same,Post-emergence action against ORYSA in %,[14]; [28],10%
same,Pre-emergence action against VERPE in %,[23],90%
same,Pre-emergence action against SETVI in %,[15],100%
same,Pre-emergence action against AVEFA in %,[24],90%
same,Pre-emergence action against ECHCG in %,[26],100%
